Values joined by “and” are separate entries in the source; they are usually repeats but may differ in a detail not shown here. Equal entries are not always repeated.
How the values were obtained:
Assay in all cases: Affinity-purification and mass spectrometry (AP-MS) chemical proteomics, all proteins;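 on Difference: 200 µM free competitor with 20 µM biotin probe overnight in lysate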
Type in all cases: binding
[1] = target: T1, proteins displaced from immobilized biotin-Cmpd 1 pulldowns (U2OS cell lysate) (Homo sapiens, UniProt O15213); conditions: GN=WDR46 (O15213)
T1 construct: endogenous in cells; host or cells: U2OS

[2] = target: T2, proteins displaced from immobilized biotin-Cmpd 1 pulldowns (U2OS cell lysate) (Homo sapiens, UniProt O75369); conditions: GN=FLNB (O75369)
T2 construct: endogenous in cells; host or cells: U2OS

[3] = target: T3, proteins displaced from immobilized biotin-Cmpd 1 pulldowns (U2OS cell lysate) (Homo sapiens, UniProt P01040); conditions: GN=CSTA (P01040)
T3 construct: endogenous in cells; host or cells: U2OS

[4] = target: T4, proteins displaced from immobilized biotin-Cmpd 1 pulldowns (U2OS cell lysate) (Homo sapiens, UniProt P13639); conditions: GN=EEF2 (P13639)
T4 construct: endogenous in cells; host or cells: U2OS

[5] = target: T5, proteins displaced from immobilized biotin-Cmpd 1 pulldowns (U2OS cell lysate) (Homo sapiens, UniProt P27797); conditions: GN=CALR (P27797)
T5 construct: endogenous in cells; host or cells: U2OS

[6] = target: T6, proteins displaced from immobilized biotin-Cmpd 1 pulldowns (U2OS cell lysate) (Homo sapiens, UniProt P50991); conditions: GN=CCT4 (P50991)
T6 construct: endogenous in cells; host or cells: U2OS

[7] = target: T7, proteins displaced from immobilized biotin-Cmpd 1 pulldowns (U2OS cell lysate) (Homo sapiens, UniProt P52948); conditions: GN=NUP98 (P52948)
T7 construct: endogenous in cells; host or cells: U2OS

[8] = target: T8, proteins displaced from immobilized biotin-Cmpd 1 pulldowns (U2OS cell lysate) (Homo sapiens, UniProt Q13573); conditions: GN=SNW1 (Q13573)
T8 construct: endogenous in cells; host or cells: U2OS

[9] = target: T9, proteins displaced from immobilized biotin-Cmpd 1 pulldowns (U2OS cell lysate) (Homo sapiens, UniProt Q13867); conditions: GN=BLMH (Q13867)
T9 construct: endogenous in cells; host or cells: U2OS

[10] = target: T10, proteins displaced from immobilized biotin-Cmpd 1 pulldowns (U2OS cell lysate) (Homo sapiens, UniProt Q6PK04); conditions: GN=CCDC137 (Q6PK04)
T10 construct: endogenous in cells; host or cells: U2OS
T10 sequence (Q6PK04 whole entry): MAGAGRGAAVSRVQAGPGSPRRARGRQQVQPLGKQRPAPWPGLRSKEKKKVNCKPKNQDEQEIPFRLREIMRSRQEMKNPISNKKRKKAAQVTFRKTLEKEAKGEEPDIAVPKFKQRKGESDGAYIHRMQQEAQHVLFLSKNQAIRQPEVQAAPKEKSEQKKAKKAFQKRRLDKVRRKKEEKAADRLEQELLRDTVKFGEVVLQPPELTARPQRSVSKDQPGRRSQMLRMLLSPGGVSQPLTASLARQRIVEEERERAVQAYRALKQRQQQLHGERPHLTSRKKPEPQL

T7 sequence (P52948 whole entry): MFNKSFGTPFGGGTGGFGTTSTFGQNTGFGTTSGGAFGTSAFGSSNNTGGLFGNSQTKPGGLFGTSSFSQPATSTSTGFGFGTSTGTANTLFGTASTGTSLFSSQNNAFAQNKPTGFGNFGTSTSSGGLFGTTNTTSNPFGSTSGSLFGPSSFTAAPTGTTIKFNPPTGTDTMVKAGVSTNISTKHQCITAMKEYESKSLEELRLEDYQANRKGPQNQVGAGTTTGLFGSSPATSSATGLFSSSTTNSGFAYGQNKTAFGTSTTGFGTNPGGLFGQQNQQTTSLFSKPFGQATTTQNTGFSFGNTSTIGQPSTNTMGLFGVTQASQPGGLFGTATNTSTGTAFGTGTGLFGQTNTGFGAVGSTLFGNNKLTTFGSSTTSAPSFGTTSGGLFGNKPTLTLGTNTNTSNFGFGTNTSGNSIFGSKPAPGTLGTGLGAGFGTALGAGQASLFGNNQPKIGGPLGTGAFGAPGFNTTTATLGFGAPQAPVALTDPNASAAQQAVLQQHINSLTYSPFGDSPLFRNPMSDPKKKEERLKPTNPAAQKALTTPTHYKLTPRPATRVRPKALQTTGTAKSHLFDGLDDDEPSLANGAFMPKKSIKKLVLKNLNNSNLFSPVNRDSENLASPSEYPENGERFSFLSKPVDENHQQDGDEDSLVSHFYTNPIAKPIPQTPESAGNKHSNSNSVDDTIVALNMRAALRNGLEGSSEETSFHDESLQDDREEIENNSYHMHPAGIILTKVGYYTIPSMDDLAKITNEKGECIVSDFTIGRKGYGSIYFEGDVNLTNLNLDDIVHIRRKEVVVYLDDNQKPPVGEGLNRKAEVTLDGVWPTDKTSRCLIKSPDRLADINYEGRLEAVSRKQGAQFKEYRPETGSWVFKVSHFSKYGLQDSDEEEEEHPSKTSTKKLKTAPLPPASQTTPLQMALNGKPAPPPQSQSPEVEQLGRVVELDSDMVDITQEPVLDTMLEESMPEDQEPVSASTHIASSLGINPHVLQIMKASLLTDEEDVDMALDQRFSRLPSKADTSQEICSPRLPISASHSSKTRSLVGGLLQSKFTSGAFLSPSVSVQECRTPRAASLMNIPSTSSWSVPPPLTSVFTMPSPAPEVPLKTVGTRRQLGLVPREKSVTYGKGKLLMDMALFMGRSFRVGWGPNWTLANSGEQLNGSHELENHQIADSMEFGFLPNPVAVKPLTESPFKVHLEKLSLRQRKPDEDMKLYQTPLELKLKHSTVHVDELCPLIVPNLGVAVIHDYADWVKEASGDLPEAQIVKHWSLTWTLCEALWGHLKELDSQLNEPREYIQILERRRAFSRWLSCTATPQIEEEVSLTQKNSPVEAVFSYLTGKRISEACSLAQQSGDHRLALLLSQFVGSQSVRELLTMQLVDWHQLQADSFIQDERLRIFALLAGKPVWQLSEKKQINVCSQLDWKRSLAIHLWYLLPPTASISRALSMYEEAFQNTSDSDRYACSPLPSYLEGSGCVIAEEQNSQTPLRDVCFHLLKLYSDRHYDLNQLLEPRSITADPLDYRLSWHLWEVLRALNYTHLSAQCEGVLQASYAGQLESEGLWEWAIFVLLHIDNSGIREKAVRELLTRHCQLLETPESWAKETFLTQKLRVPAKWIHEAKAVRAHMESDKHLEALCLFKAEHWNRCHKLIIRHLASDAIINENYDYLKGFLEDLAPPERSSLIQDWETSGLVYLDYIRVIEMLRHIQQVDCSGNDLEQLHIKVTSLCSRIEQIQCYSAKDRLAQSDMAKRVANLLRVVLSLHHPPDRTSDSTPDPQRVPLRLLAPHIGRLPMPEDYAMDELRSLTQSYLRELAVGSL
T8 sequence (Q13573 whole entry): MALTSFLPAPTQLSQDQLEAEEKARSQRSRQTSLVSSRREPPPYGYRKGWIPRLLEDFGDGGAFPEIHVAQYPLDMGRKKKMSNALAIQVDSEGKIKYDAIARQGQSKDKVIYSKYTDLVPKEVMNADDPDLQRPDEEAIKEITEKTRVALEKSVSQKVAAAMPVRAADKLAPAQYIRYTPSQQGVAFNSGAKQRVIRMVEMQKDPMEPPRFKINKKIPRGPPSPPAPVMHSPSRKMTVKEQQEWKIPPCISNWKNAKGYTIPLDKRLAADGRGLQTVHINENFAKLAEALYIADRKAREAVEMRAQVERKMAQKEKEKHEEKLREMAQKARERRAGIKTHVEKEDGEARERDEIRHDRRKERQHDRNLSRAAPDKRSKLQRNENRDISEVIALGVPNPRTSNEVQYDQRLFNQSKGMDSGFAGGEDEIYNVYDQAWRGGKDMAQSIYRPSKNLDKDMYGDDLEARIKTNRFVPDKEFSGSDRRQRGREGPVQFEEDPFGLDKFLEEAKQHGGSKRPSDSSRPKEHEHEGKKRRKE
T6 sequence (P50991 whole entry): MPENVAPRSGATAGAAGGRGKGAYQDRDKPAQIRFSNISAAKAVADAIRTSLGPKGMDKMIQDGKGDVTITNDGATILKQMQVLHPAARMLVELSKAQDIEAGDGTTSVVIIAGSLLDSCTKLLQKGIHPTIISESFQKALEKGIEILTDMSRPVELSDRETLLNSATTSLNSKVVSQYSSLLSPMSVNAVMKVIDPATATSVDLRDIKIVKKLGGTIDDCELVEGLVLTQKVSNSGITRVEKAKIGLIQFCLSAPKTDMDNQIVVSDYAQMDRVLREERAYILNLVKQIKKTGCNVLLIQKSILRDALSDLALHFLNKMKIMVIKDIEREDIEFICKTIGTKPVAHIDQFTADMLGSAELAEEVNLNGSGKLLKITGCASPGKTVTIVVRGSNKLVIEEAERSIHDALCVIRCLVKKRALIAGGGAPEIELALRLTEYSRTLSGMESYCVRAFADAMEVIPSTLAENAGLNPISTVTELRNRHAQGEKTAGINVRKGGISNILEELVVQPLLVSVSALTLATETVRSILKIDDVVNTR
T5 sequence (P27797 18-417): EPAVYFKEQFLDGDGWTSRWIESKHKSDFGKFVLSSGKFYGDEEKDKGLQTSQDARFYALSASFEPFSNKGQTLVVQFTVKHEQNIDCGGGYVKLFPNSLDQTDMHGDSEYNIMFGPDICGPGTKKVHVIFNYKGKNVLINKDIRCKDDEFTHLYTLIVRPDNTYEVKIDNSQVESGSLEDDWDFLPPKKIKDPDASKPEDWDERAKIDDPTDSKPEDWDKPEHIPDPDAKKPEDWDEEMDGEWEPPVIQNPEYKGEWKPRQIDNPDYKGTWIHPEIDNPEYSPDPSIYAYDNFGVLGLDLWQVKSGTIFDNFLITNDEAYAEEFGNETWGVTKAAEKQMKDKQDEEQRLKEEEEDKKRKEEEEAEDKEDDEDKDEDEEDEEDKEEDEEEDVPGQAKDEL
T3 sequence (P01040 whole entry): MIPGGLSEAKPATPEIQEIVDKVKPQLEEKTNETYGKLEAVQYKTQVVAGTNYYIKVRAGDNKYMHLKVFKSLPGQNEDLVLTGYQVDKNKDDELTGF
T9 sequence (Q13867 whole entry): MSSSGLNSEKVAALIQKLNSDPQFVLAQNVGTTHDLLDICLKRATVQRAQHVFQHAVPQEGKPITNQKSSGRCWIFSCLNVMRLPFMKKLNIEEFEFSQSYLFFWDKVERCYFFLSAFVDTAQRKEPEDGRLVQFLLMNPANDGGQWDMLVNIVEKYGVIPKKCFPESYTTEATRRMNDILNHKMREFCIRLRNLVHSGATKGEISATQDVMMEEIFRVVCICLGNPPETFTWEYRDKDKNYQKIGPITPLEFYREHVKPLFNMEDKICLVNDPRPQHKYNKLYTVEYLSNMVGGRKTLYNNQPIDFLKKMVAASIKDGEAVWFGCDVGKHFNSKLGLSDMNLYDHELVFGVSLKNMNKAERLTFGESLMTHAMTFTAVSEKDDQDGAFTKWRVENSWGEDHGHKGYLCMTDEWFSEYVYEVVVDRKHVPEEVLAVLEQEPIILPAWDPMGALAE
T1 sequence (O15213 whole entry): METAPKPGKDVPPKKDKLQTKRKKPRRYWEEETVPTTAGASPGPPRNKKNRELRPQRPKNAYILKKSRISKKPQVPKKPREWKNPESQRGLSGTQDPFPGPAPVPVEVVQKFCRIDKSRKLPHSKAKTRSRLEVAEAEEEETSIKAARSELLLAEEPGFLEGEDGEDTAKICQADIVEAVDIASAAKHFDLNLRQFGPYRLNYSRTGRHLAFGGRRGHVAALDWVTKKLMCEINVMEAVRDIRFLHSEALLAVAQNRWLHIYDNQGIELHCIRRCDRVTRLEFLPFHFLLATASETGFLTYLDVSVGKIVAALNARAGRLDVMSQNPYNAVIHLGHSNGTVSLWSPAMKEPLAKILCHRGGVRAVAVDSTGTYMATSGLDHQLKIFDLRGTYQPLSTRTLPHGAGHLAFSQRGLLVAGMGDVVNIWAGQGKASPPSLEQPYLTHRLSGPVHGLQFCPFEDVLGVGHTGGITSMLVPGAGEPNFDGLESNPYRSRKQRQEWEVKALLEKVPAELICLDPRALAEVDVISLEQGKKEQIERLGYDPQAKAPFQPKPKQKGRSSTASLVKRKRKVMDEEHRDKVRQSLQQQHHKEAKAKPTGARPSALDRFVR

## Cn1c2c(c(=N)c3c1CCC3)CCC2 [Compound 1, 4-methyl-2,3,4,5,6,7-hexahydrodicyclopenta[b,e]pyridin-8(1H)-imine]
[1]; Cmpd minus DMSO, -LOG(P-value) 1.25579
  Difference: -1.697
[1]; replicates 1-3
  iBAQ Cmpd: 17.4002 and 17.0091 and 16.4289
[2]; Cmpd minus DMSO, -LOG(P-value) 0.706969
  Difference: 1.057
[2]; replicates 1-3
  iBAQ Cmpd: 17.1694 and 17.27 and 16.0757
[3]; Cmpd minus DMSO, -LOG(P-value) 0.909034
  Difference: -0.9866
[3]; replicates 1-3
  iBAQ Cmpd: 23.1983 and 23.5243 and 22.4826
[4]; Cmpd minus DMSO, -LOG(P-value) 1.71036
  Difference: -0.7791
[4]; replicates 1-3
  iBAQ Cmpd: 17.772 and 17.7165 and 17.939
[5]; Cmpd minus DMSO, -LOG(P-value) 1.31392
  Difference: 3.089
[5]; replicates 1-3
  iBAQ Cmpd: 19.5486 and 19.2952 and 16.8093
[6]; Cmpd minus DMSO, -LOG(P-value) 0.713793
  Difference: 0.7229
[6]; replicates 1-3
  iBAQ Cmpd: 21.0359 and 20.6692 and 20.6092
[7]; Cmpd minus DMSO, -LOG(P-value) 0.703266
  Difference: 1.019
[7]; replicates 1-3
  iBAQ Cmpd: 16.2576 and 15.2783 and 15.0872
[8]; Cmpd minus DMSO, -LOG(P-value) 1.77748
  Difference: 2.177
[8]; replicates 1-3
  iBAQ Cmpd: 17.1233 and 17.0397 and 16.2301
[9]; Cmpd minus DMSO, -LOG(P-value) 0.904295
  Difference: -3.65
[9]; replicates 1-3
  iBAQ Cmpd: 19.0378 and 19.0387 and 13.7316
[10]; Cmpd minus DMSO, -LOG(P-value) 1.1923
  Difference: 2.593
[10]; replicates 1-3
  iBAQ Cmpd: 19.0065 and 18.1463 and 18.0423

Reference: article PMC9481570, “A small molecule antagonist of SMN disrupts the interaction between SMN and RNAP II” (Nature Communications, 2022)
